Holding throughout (type): cell-based, human
One test concerns MCF-7/BOS cells. The test can be described thus: Adherens junction morphology upon fulvestrant in parental MCF-7/BOS cells. Particulars: 10^−8 M, 48 h. On the procedure:
(§1) Next, the inventors tried to reproduce the effects obtained with the cells as deposited under DSM ACC3321 with other conventional MCF-7 cells, namely MCF-7/BOS provided by Prof. Ana Soto (Tufts University School of Medicine, Boston, Mass., USA) and the MCF-7/ACC115 clone obtained from the Leibniz-Institut DSMZ-Deutsche Sammlung von Mikroorganismen and Zellkulturen GmbH (Braunschweig, Germany).
(§2) Briefly, the MCF-7 cells were seeded and grown on glass coverslips in multi-well tissue culture plates (TPP) for 24 h to reach near 100% confluence and then treated for at least 48 h with 0.1% EtOH (solvent control) and the ERα antagonist fulvestrant (Sigma-Aldrich, CAS-No. 129453-61-8) at a concentration of 10^−8 M. During experiments, medium was exchanged on a daily basis. All experiments were performed at 37° C. with 5% CO2 in reduced-serum medium (phenol red-free DMEM (Gibco), 5% FBS (Biochrom, S 0615, LOT1353 W), 1% glutamine, 100 μg/ml streptomycin/100 U/ml penicillin (Biochrom)).

For the next test, the system named is MCF-7/ACC115 cells. The test can be described thus: Adherens junction morphology upon fulvestrant in MCF-7/ACC115 cells. The settings on record: 10^−8 M, 48 h. On the procedure: as §1, §2
The next test has as its system MCF-7/vBOS cells. The test can be described thus: Adherens junction stability: cell rounding after EGTA-containing medium (live imaging). Particulars: pre-treated 48 hours; EGTA 8×10^−3 M, 120 minutes; vs control cells. On the procedure: FIG. 9 provides a CellProfiler/CellProfiler-Analyst-based quantification (analogous to FIG. 7) showing the rate of cell rounding over the course of 120 minutes in MCF7/vBOS cells pre-treated with fulvestrant for 48 hours (dotted bars) compared to solvent control cells (black bars). Indicated time points depict time after application of EGTA-containing medium (EGTA, 8×10^−3 M) to disrupt adherens junctions. Biological replicates, n=3. Error bars, mean+/−s.e.m. Statistical testing, one-way ANOVA with Sidak's correction for multiple comparisons; *, p<0.05; **, p<0.01; ***, p<0.005; ****, p<0.001. Scale bar, 50 μm.
In a further set of experiments, the inventors tested whether the anti-estrogen-mediated reorganization of adherens junctions likewise increased adherens junction stability in MCF-7/vBOS cells. Therefore, EGTA-containing medium (8×10^−3 M) was applied to both control cells and cells pre-treated for 48 hours with fulvestrant to disrupt homophilic E-Cadherin binding, and the fraction of rounded cells was monitored over the course of 120 minutes by live imaging. Quantification of rounded cells vs. non-rounded cells was done in analogous manner as described above in example 7 for quantification of continuous and discontinuous adherens junctions.

Test [1] relates to MCF-7/vBOS breast cancer cells. Kind of test: Cell stiffness by atomic force microscopy (AFM) indentation. On the procedure: (§3) FIG. 10 illustrates that inhibition of ERα signaling increases tissue stability by modulating cell mechanics and cell motility. (A) Quantification of cell stiffness (Apparent elastic (Young's) modulus) by atomic force microscopy (AFM) indentation measurements on cells treated with fulvestrant for 48 hours (ERepl.1=0.7141±0.1193 kPa; ERepl.2=0.651±0.1407 kPa; ERepl.3=0.5938±0.1564 kPa; mean±s.d.) compared to solvent control cells (, ERepl.1=0.4841±0.1194 kPa; ERepl.2=0.4088±0.1513 kPa; ERepl.3=0.4660±0.1189 kPa). Biological replicates, n=3; 50-60 cells per condition. Boxes, 25th, 50th (median), and 75th percentiles. Whiskers, 10th and 90th percentiles. Cross, mean for each group. Statistical testing, Mann-Whitney tests; **, p values<0.01. (B) Quantification of cell motility (velocity) by manual tracking of cells treated with fulvestrant for 48 hours (VRepl.1=0.0613±0.0176 μm/min; VRepl.2=0.0553±0.0157 μm/min; VRepl.3=0.051±0.014 μm/min; mean±s.d.) compared to solvent control cells (VRepl.1=0.113±0.0237 μm/min; VRepl.2=0.0757±0.023 μm/min; VRepl.3=0.0827±0.0174 μm/min). Biological replicates, n=3; 3 fields with 10 cells each per replicate and condition were imaged every 10 minutes over the course of 16 h. Boxes, 25th, 50th (median), and 75th percentiles. Whiskers, 10th and 90th percentiles. Cross, mean for each group. Statistical testing, Mann-Whitney tests; **, p values<0.01.
To test whether anti-estrogens also impact on the biomechanical properties of MCF-7/vBOS breast cancer cells, the inventors performed atomic force microscopy (AFM) indentation measurements on confluent monolayers. For this purpose, MCF7/vBos cells were grown and treated in 35 mm FluoroDish cell culture dishes (WPI) as described above. AFM indentation measurements were performed in CO2 Independent Medium (Gibco) at 37° C. using the NanoWizard 1 or 4 (JPK Instruments). Prior to measurements, tip-less Arrow-TLlsilicone cantilevers (Nanoworld) were equipped with polystyrene beads of 5 μm in diameter (microParticles GmbH, Germany) using epoxy glue, and calibrated using built-in procedures of the SPM software (JPK Instruments). The cantilever was positioned above the confluent epithelial monolayer and lowered with a speed of 10 μm/s. In each experiment, force-distance curves (force setpoint 2.5 nN) from 3-4 different positions per cell were collected. Force-distance curves were transformed into force-versus-tip sample separation curves according to Radmacher (Methods Cell Biol 2002; 68:67-90), and fitted with the Hertz/Sneddon model (27) for a spherical indenter using the JPK Data Processing software (JPK Instruments). […] Apparent elastic (Young's) moduli were determined using the Hertz model for a quadratic pyramid using the JPK Data Processing software (JPK Instruments).

Test [2] relates to MCF-7/vBOS breast cancer cells. The test can be described thus: Cell motility by manual tracking in confluent monolayer after scratch. On the procedure:
as §3
Given that anti-estrogens increase adherens junction stability and cell rigidity, the inventors asked whether cell motility was likewise affected.

The subject of test [3] is MCF7/vBOS cells (DSM ACC3321). The test can be described thus: Formation of discontinuous basolateral adherens junctions upon anti-estrogen exposure (E-Cadherin immunofluorescence).
Setting [4] is: treated 48 hours, mean±s.d., replicate 1.
Setting [5] is: treated 48 hours, mean±s.d., replicate 2.
Where [6] appears, read: treated 48 hours, mean±s.d., replicate 3.

Turning to `C[C@]12CC[C@@H]3c4ccc(O)cc4C[C@@H](CCCCCCCCC[S+]([O-])CCCC(F)(F)C(F)(F)F)[C@H]3[C@@H]1CC[C@@H]2O` (stereo partly drawn) [Fulvestrant], the “adherens junctions morphology in absence and presence of fulvestrant” value in the test on MCF-7/BOS cells and in the test on MCF-7/ACC115 cells was “same continuous adherens junctions morphology” in each case. Further, the “rate of cell rounding” value with MCF-7/vBOS cells is given as “significantly reduced”. Further, the cell rigidity result in test [1] (throughout the cell surface and at junctional regions, vs solvent control) is given as “significantly elevated”. For the same compound, in test [1] (setting [4]), the “Apparent elastic (Young's) modulus, Repl.1” value came out at 0.7141±0.1193 kPa. Besides, the “Apparent elastic (Young's) modulus, Repl.2” value in test [1] (setting [5]) is reported as 0.651±0.1407 kPa. The “Apparent elastic (Young's) modulus, Repl.3” value in test [1] (setting [6]) came out at 0.5938±0.1564 kPa. Moreover, in test [2] (setting [4]), the “cell motility (velocity), Repl.1” value came out at 0.0613±0.0176 μm/min. The “cell motility (velocity), Repl.2” value in test [2] (setting [5]) is given as 0.0553±0.0157 μm/min. In addition, in test [2] (setting [6]), the “cell motility (velocity), Repl.3” value was 0.051±0.014 μm/min. Also, the velocity of cells entry in test [2] (vs solvent control) was “significantly reduced”. Besides, in test [2] (vs solvent control, data not shown), the “length of cell trajectories” value is on record as “significantly reduced”. In addition, the “change in adherens junctions morphology on staining β-Catenin, α-Catenin, p120-Catenin or cortical actin cytoskeleton” value in test [3] (10^−8 M, at least 48 h) is recorded as “also observable”. The “manifestation of phenotype after short exposure” value in test [3] (exposure for only 2 hours, read after 48 hours in media w/o fulvestrant) is recorded as “lead to manifestation of the discontinuous basolateral adherens junctions phenotype”. Also, in test [3] (fulvestrant 24 hours, then 24 or 48 hours in fulvestrant-free medium), the “stability of discontinuous adherens junctions independent of the presence of fulvestrant” value is listed as “at least 48”.

Values taken from patent US20210055311A1, “SCREENING METHOD FOR ESTROGENIC AND ANTI-ESTROGENIC ACTIVITY” (BUNDESINSTITUT FÜR RISIKOBEWERTUNG, priority 2018, published 2021).
